Laboratory results as given in patent US8592421B2, “Cyclic bioisosters of purine system derivatives and a pharmaceutical composition based thereon” (priority 2003, dated 2013).
Marks after values point to notes of the source that are not given here.

Key:
plasma hemostasis [1] = assay: Thrombin time after intravenous administration; type: in vivo, rabbit
Method: The investigations were performed on 72 rabbits of the “Chinchilla” breed with a mass of 2.5±0.3 kg, who were administered which solutions of compounds 2, 15, 21, 37 in doses of 15, 30 and 60 mg/kg intravenously. The experiments included the thrombin-test (series No. 7300) and the coagulability-test (series No. 5000) purchased from the scientific-and-production association (SPA) “Renam”, thromboplastin (series No. 240600) and calcium chloride purchased from the SPA “MedioLab”
(§1) The static parameters of the blood and plasma coagulation (partial activated thromboplastin time, thrombin time, maximum coagulation activity (test for auto coagulation) were determined using the Behnk Electronic coagulometer (Germany). The operating principle of this instrument is based on the fact that the formed blood clot breaks the contacts of the pulse counter in the flask-pin circuit, said pin permanently oscillating in a vertical plane. The moment of formation of the clot is registered by stopping the stop watch hand.
(§2) The measurements were effected at a constant temperature of 37° C. maintained by a temperature control unit.
The “thrombin time” characterizes the rate of transformation of fibrinogen into fibrin. It was determined by measuring the coagulation time of plasma deprived of thrombocytes under the effect of thrombin standardized by the control plasma.
0.2 ml of a thrombin solution was added to 0.2 ml of the test blood plasma of experimental animals, from whom the blood was taken 15, 30, 60 and 120 minutes after the intravenous administration of compounds 2, 15, 21, 37 according to the invention in doses of 15, 30, 60 mg/kg incubated for 1 minute at a temperature of 37° C. and the time of formation of clot T2 in seconds in a coagulometer of the Behnk Electronic Company (Germany).

plasma hemostasis [2] = assay: Partial activated thromboplastin time (PATT) after intravenous administration; type: in vivo, rabbit
Method: as §1, §2

[3] = Chronic toxicity of suppositories: biochemical indexes of blood serum; type: in vivo, rats; conditions: male rats, suppositories, 1 month; for Cholesterol in blood serum: control 3.02 ± 0.08; for Urea in blood serum: control 8.44 ± 0.60; for Glucose in blood serum: control 9.76 ± 0.15; for ALT in blood serum: control 11.33 ± 1.96; for AST in blood serum: control 19.13 ± 1.02; for Bilirubin in blood serum: control 35.93 ± 2.19; for Creatinine in blood serum: control 40.23 ± 2.84; for Alkalinous phosphatase in blood serum: control 40.74 ± 1.57; for Total protein in blood serum: control 94.89 ± 6.67;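 as to all read-outs here: inbred rats dosed rectally with softened suppositories, controls given matching volumes of sterile medical liquid paraffin, serum sampled one month into a two-month dosing course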
Method: The experiments were conducted on inbred rats.
Two doses of preparations used in the experiments: 50 mg/kg and 500 mg/kg. Before the administration, the suppositories were softened by heating in a glass water bath at a temperature of 38-39° C., the soft mass was collected in tuberculin syringe in a volume of 1 ml, a needle with oliva was attached to the syringe, and the preparatory mass was introduced into the rectum of the animal for a depth of 1.5-2.0 cm. The animals of the control group were administered with sterile medical liquid paraffin in a volume corresponding to the volume of the investigated suppository. A complete course of administration of drugs to the animals was two months. A complex of laboratory diagnostic investigations was carried out one month after the beginning of the administration of the preparation to the animal—in a middle of the course (8 animals), two months after ending the course (8 animals) and three months after ending the recovery period of one month (8 animals). The mass of the body of the rats in the first month of administration of the preparation was determined weekly, and then once in two weeks. On the basis of the dynamics of an index of the mass of the animal body, the volume of preparation being administered was corrected taking into account the test dose.

thrombocytes = assay: ADP-induced aggregation of thrombocytes in vitro (Born method, plasma enriched with thrombocytes); type: cell-based, rabbit; conditions: 3-minute incubation, ADP 10^−5 M
Method: The aggregation of thrombocytes was studied by the Born method based on determination of the changes in the optical density of plasma enriched with thrombocytes after its incubation with an aggregation inductor.
Adenozinediphosphoric acid (ADP) was selected as an aggregation inductor, which in fact is an aggregation generator. Use was made of a sample (registration number 885) of the Sigma Diagnostics Company (USA) in final concentration of 10^−5 M.
The experiments were carried out on male rabbits of the “Chinchilla” breed having a mass of 2.7±0.3 kg. 18-24 hours prior to the experiment they were deprived of feed while preserving free access to water.
To obtain plasma enriched with thrombocytes, blood was taken from a cut of a marginal vein of the rabbit ear, the sample was stabilized with 3.8% of sodium citrate solution in a ratio of 9:1 and centrifuged at 200 g (1000 rev/min) for 10 minutes. The top supernatant layer enriched with thrombocytes was transferred by an automatic dropper into a silicone test tube and kept at 37° C. The plasma enriched with thrombocytes contained, on the average, […]. If this content exceeded the specified 3×10^8 blood platelets in 1 liter, this sample was diluted to the necessary concentration with plasma deprived of thrombocytes, which was obtained by centrifuging blood at 650 g during 10 minutes.
The measurements of the optical density of the samples were made on two-channel aggregometer of the “Chronolog” Company (USA). A flask containing 490 mkl of plasma rich with thrombocytes was placed in a device, into which a magnetic agitator covered with Teflon was lowered. The index of maximum amplitude of aggregation (MA) in percent of a fall of the plasma optical density under effect of the aggregation inductor was recorded. The control index MA of plasma was compared with the MA of plasma incubated for 3 minutes with different concentrations of the compounds: from 10^−3 to 10^−7 in vitro experiments or with plasma obtained 15, 30, 60 and 120 minutes after intravenous administration of different doses of the compounds in vivo experiments.
The process of aggregation of thrombocytes was recorded with the help of a computer; on the monitor screen the there were depicted curves reflecting changes of the optical density of the plasma enriched which was taken as a standard 100% compared to the optical density of the non-thrombocyte plasma taken for 0% content of thrombocytes.
Under in vitro conditions a flask was filled with blood plasma enriched with thrombocytes, to which an aggregation inductor ADP was added at a concentration of 10^−5 M, incubated for 3 minutes, and then the compounds according to the invention were introduced directly into the flask. Their action by aggregation of thrombocytes was studied after 3-minute incubation in a wide range of concentrations from 10^−3 to 10^−7 M to minimum concentration of 10^−7M not inducing no effect of suppressing the aggregation.

## O=c1[nH][nH]c(=O)c2c(Br)ncnc12.[K] [Compound 37, potassium salt of 4-bromine-pyrimido[4,5-D]-6H-pyridazine-5,8-dione]
Plasma hemostasis [1]; 15.0 mg/kg intravenously, after 15 minutes, control 15.8
  thrombin time, T2: 16.9* s
Plasma hemostasis [1]; 15.0 mg/kg intravenously, after 30 minutes, control 15.8
  thrombin time, T2: 18.2* s
Plasma hemostasis [1]; 15.0 mg/kg intravenously, after 60 minutes, control 15.8
  thrombin time, T2: 16.3* s
Plasma hemostasis [1]; 15.0 mg/kg intravenously, after 120 minutes, control 15.8
  thrombin time, T2: 15.6* s
Plasma hemostasis [1]; 30.0 mg/kg intravenously, after 15 minutes, control 14.7
  thrombin time, T2: 19.5* s
Plasma hemostasis [1]; 30.0 mg/kg intravenously, after 30 minutes, control 14.7
  thrombin time, T2: 20.3* s
Plasma hemostasis [1]; 30.0 mg/kg intravenously, after 60 minutes, control 14.7
  thrombin time, T2: 21.0* s
Plasma hemostasis [1]; 30.0 mg/kg intravenously, after 120 minutes, control 14.7
  thrombin time, T2: 15.2* s
Plasma hemostasis [1]; 60.0 mg/kg intravenously, after 15 minutes, control 15.2
  thrombin time, T2: 16.6* s
Plasma hemostasis [1]; 60.0 mg/kg intravenously, after 30 minutes, control 15.2
  thrombin time, T2: 17.8* s
Plasma hemostasis [1]; 60.0 mg/kg intravenously, after 60 minutes, control 15.2
  thrombin time, T2: 16.2* s
Plasma hemostasis [1]; 60.0 mg/kg intravenously, after 120 minutes, control 15.2
  thrombin time, T2: 15.0* s
Plasma hemostasis [2]; 15.0 mg/kg intravenously, after 15 minutes, control 37.0 ± 0.2
  PATT, T: 37.0 ± 0.2 s
Plasma hemostasis [2]; 15.0 mg/kg intravenously, after 30 minutes, control 37.0 ± 0.2
  PATT, T: 37.1 ± 0.1 s
Plasma hemostasis [2]; 15.0 mg/kg intravenously, after 60 minutes, control 37.0 ± 0.2
  PATT, T: 37.0 ± 0.2 s
Plasma hemostasis [2]; 15.0 mg/kg intravenously, after 120 minutes, control 37.0 ± 0.2
  PATT, T: 36.9 ± 0.1 s
Plasma hemostasis [2]; 30.0 mg/kg intravenously, after 15 minutes, control 33.3 ± 0.8
  PATT, T: 33.1 ± 0.1 s
Plasma hemostasis [2]; 30.0 mg/kg intravenously, after 30 minutes, control 33.3 ± 0.8
  PATT, T: 33.3 ± 0.1 s
Plasma hemostasis [2]; 30.0 mg/kg intravenously, after 60 minutes, control 33.3 ± 0.8
  PATT, T: 33.3 ± 0.2 s
Plasma hemostasis [2]; 30.0 mg/kg intravenously, after 120 minutes, control 33.3 ± 0.8
  PATT, T: 33.0 ± 0.4 s
Plasma hemostasis [2]; 60.0 mg/kg intravenously, after 15 minutes, control 32.5 ± 0.3
  PATT, T: 32.5 ± 0.1 s
Plasma hemostasis [2]; 60.0 mg/kg intravenously, after 30 minutes, control 32.5 ± 0.3
  PATT, T: 32.3 ± 0.2 s
Plasma hemostasis [2]; 60.0 mg/kg intravenously, after 60 minutes, control 32.5 ± 0.3
  PATT, T: 32.4 ± 0.1 s
Plasma hemostasis [2]; 60.0 mg/kg intravenously, after 120 minutes, control 32.5 ± 0.3
  PATT, T: 32.6 ± 0.3 s
Plasma hemostasis [2]; doses 15.0, 30.0, 60.0 mg/kg
  effect on the PATT: do not affect the PATT
[3]; 50 mg/kg
  Cholesterol in blood serum: 2.48 ± 0.62 mmol/L
  Urea in blood serum: 9.36 ± 0.62 Mkmol/l
  Glucose in blood serum: 9.9 ± 0.51 mM
  ALT in blood serum: 8.98 ± 2.43 unit/l
  AST in blood serum: 19.97 ± 2.78 unit/1
  Bilirubin in blood serum: 42.17 ± 3.28 mmol/L
  Creatinine in blood serum: 46.84 ± 2.92 mkmol/l
  Alkalinous phosphatase in blood serum: 41.86 ± 5.26 unit/l
  Total protein in blood serum: 89.44 ± 7.22 g/L
[3]; 500 mg/kg
  Cholesterol in blood serum: 2.64 ± 0.46 mmol/L
  Urea in blood serum: 10.57 ± 0.56 Mkmol/l
  Glucose in blood serum: 10.9 ± 0.84 mM
  ALT in blood serum: 9.56 ± 1.34 unit/l
  AST in blood serum: 18.21 ± 1.87 unit/1
  Bilirubin in blood serum: 41.45 ± 7.18 mmol/L
  Creatinine in blood serum: 47.13 ± 9.82 mkmol/l
  Alkalinous phosphatase in blood serum: 42.18 ± 2.34 unit/l
  Total protein in blood serum: 70.88 ± 7.24 g/L
thrombocytes; 10^−3 M, control 60.8 ± 3.4
  MA - fall of optical density of plasma, % to the standard: 46.9 ± 2.7 %
thrombocytes; 10^−4 M, control 60.0 ± 2.1
  MA - fall of optical density of plasma, % to the standard: 47.1 ± 2.0 %
thrombocytes; 10^−5 M, control 52.5 ± 2.1
  MA - fall of optical density of plasma, % to the standard: 40.6 ± 1.7 %
thrombocytes; 10^−6 M, control 52.8 ± 1.8
  MA - drop of optical density, %: 48.1 ± 2.9%
thrombocytes; 10^−7 M, control 51.5 ± 2.1
  MA - drop of optical density, %: 50.1 ± 1.0%
